#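 Briefly, cells in 96-well plates were exposed to five compound concentrations for 48 h, and endpoints were estimated by linear interpolation. Abbreviation: GI50, concentration required for 50% inhibition of growth.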 Activity calls are given as the source filed them. Rule as the data show it: active = GI50 up to about 1.1 µM and inactive = higher.
# Legend:
# Test in all cases: DTP human tumour cell line panel, 48 h
# A549 = system: A549
# CCRF-CEM = system: CCRF-CEM
# DLD-1 = system: DLD-1
# DMS-273 = system: DMS-273
# HCT-15 = system: HCT-15
# HOP-62 = system: HOP-62
# IGROV-1 = system: IGROV-1
# MOLT-4 = system: MOLT-4
# NCI-H522 = system: NCI-H522
# OVCAR-3 = system: OVCAR-3
# OVCAR-5 = system: OVCAR-5
# OVCAR-8 = system: OVCAR-8
# RPMI-8226 = system: RPMI-8226
# SF-268 = system: SF-268
# SF-295 = system: SF-295
# SK-MEL-28 = system: SK-MEL-28
# SK-OV-3 = system: SK-OV-3
# SNB-19 = system: SNB-19
# SW-620 = system: SW-620
# UO-31 = system: UO-31
SMILES,GI50 (A549),GI50 (CCRF-CEM),GI50 (DLD-1),GI50 (DMS-273),GI50 (HCT-15),GI50 (HOP-62),GI50 (IGROV-1),GI50 (MOLT-4),GI50 (NCI-H522),GI50 (OVCAR-3),GI50 (OVCAR-5),GI50 (OVCAR-8),GI50 (RPMI-8226),GI50 (SF-268),GI50 (SF-295),GI50 (SK-MEL-28),GI50 (SK-OV-3),GI50 (SNB-19),GI50 (SW-620),GI50 (UO-31)
O=C(O)CCC(NC(=O)c1ccc(Nc2nc3ccc(C(F)(F)F)cc3nc2-c2ccccc2)cc1)C(=O)O (stereo not drawn),> 100 µM (inactive),> 100 µM (inactive),> 100 µM (inactive),> 100 µM (inactive),> 100 µM,> 100 µM (inactive),> 100 µM (inactive),> 100 µM (inactive),> 100 µM (inactive),> 100 µM (inactive),> 100 µM (inactive),> 100 µM (inactive),> 100 µM (inactive),> 100 µM (inactive),> 100 µM (inactive),> 100 µM (inactive),> 100 µM (inactive),> 100 µM (inactive),> 100 µM (inactive),> 100 µM (inactive)
S=C1NN=C2C(=C3CCCC4C5CCCCC5N2C34)N1 (stereo not drawn),> 100 µM (inactive),37.2 µM (inactive),,,> 100 µM,> 100 µM (inactive),> 100 µM (inactive),38 µM (inactive),62.2 µM (inactive),> 100 µM (inactive),> 100 µM (inactive),> 100 µM (inactive),28.4 µM (inactive),> 100 µM (inactive),> 100 µM (inactive),> 100 µM (inactive),> 100 µM (inactive),> 100 µM (inactive),> 100 µM (inactive),> 100 µM (inactive)
CCC12CCC[C@@]13C=C[C@H](O3)C(C)(C)C2=O (stereo partly drawn),> 100 µM (inactive),> 100 µM (inactive),> 100 µM (inactive),> 100 µM (inactive),> 100 µM,> 100 µM (inactive),> 100 µM (inactive),> 100 µM (inactive),> 100 µM (inactive),> 100 µM (inactive),> 100 µM (inactive),> 100 µM (inactive),> 100 µM (inactive),> 100 µM (inactive),> 100 µM (inactive),,> 100 µM (inactive),> 100 µM (inactive),> 100 µM (inactive),> 100 µM (inactive)
COc1ccc(C2C(C#N)=C(O)NC(O)=C2C#N)cc1OC,> 100 µM (inactive),,,> 100 µM (inactive),> 100 µM,> 100 µM (inactive),> 100 µM (inactive),> 100 µM (inactive),> 100 µM (inactive),> 100 µM (inactive),> 100 µM (inactive),> 100 µM (inactive),> 100 µM (inactive),> 100 µM (inactive),> 100 µM (inactive),> 100 µM (inactive),> 100 µM (inactive),> 100 µM (inactive),> 100 µM (inactive),> 100 µM (inactive)
CN(C)CCNCc1c2ccccc2c(CNCCN(C)C)c2ccccc12,23.1 µM (inactive),20.8 µM (inactive),29.4 µM (inactive),34 µM (inactive),41.1 µM,18 µM (inactive),26.6 µM (inactive),2.2 µM (inactive),31 µM (inactive),37.5 µM (inactive),17.1 µM (inactive),31.6 µM (inactive),31 µM (inactive),27 µM (inactive),49.2 µM (inactive),63.8 µM (inactive),16.9 µM (inactive),,18 µM (inactive),> 100 µM (inactive)
Nc1nc(=O)n(C2OC(CO)C(O)C2O)cc1F (stereo not drawn),0.255 µM (active),< 0.0136 µM (active),> 100 µM (inactive),4.36 µM (inactive),3.13 µM,0.228 µM (active),> 100 µM (inactive),< 0.0166 µM (active),0.785 µM (active),> 100 µM (inactive),0.855 µM (active),0.222 µM (active),> 100 µM (inactive),2.75 µM (inactive),21.8 µM (inactive),,> 100 µM (inactive),1.91 µM (inactive),22.2 µM (inactive),10.3 µM (inactive)

# From ChEMBL document CHEMBL1201862, “PubChem BioAssay data set” (2004)
